From paper PMC8776995 (Frontiers in Chemistry, 2022)
Where “and” joins values, the source holds several entries; their conditions need not be identical. Equal values may be shown once.

Columns and labels:
PC-9 cells [1] = assay: Annexin V/PI flow cytometry for cell apoptosis, PC-9; format: cell-based, human; set-up: key to Apoptosis (sum of Q2 and Q3) / Apoptosis, Average: % apoptotic cells (Annexin V/PI flow cytometry); details: for Apoptosis, Average / Lymphocytes/Q2: FITC-A+ , PI-A+ Freq. of Parent / Lymphocytes/Q3: FITC-A+ , PI-A- Freq. of Parent / Apoptosis (sum of Q2 and Q3): PC-9, 48h; for Apoptosis, Average: average of three repeats; for Lymphocytes/Q2: FITC-A+ , PI-A+ Freq. of Parent / Lymphocytes/Q3: FITC-A+ , PI-A- Freq. of Parent: single runs; for Apoptosis (sum of Q2 and Q3): single repeats (Repeat 1-3)
Protocol: To establish whether the antiproliferative efficacy is associated with apoptosis, PC-9 and H460 cells were treated with compound e4 or e12 of various concentrations (4, 8 and 12 μM) for 48 h, and then assessed with flow cytometry.
Cell-apoptosis analysis was carried out by flow cytometry using the Annexin V/PI apoptosis kit according to the manufacturer’s manual. Briefly, PC-9 or H460 (3 × 10^4–5 × 10^4/well) cells were seeded in 12-well plates for 24 h, and then treated with 0.1% DMSO (as control) or various concentrations of compound e4 or e12 for 48 h, respectively. Cells were harvested, washed with PBS, and then incubated with 100ul of 1X Annexin V binding buffer containing 1 μl PI and 1 μl FITC Annexin V for 15 min at RT in the dark. 200 µl of 1X binding buffer were added to each tube for flow cytometry analysis (BD LSRFortessa™ Flow Cytometer). The percentages of apoptotic cells were analyzed using FlowJo soft.

PC-9 cells [2] = assay: Hoechst 33342 staining for cell apoptosis; format: cell-based, human; details: PC-9, various concentrations, 48 h, vs 0.1% DMSO
Protocol: To further verify the impact of compounds e4 and e12 on apoptosis of NSCLC cells, PC-9 cells were treated with either compound e4 or e12 at various concentrations for 48 h and then stained with dye Hoechst 33342.
PC-9 cells were seeded in 96-well plates, then treated with 0.1% DMSO (as control) or various concentrations of compound e4 or e12 for 48 h. Culture medium from the cells was removed and replaced with medium containing dye Hoechst 33342. Cells were incubated at 37°C for 5–15 min, washed with PBS twice, and then observed and imaged under the Nikon Ti-U microscope.

PC-9 cells [3] = assay: Flow cytometry detection for cell cycle, PC-9; format: cell-based, human; details: for G0/G1 / G2/M / S: single repeats (Repeat 1-3)
Protocol: To investigate the effects of compounds e4 and e12 on various phases of the cell cycle, PC-9 cells were treated with compound e4 or e12 of various concentrations for 24 h, and H460 cells were treated with compound e4 or e12 of various concentrations for 12 h.
PC-9 or H460 (2 × 10^5–3 × 10^5/well) cells were seeded in six-well plates for 24 h, and then treated with 0.1% DMSO (as control), various concentrations of either compound e4 or e12 for 24 h (PC-9) or 12 h (H460), respectively. The treated cells were harvested, washed with PBS, and then stained using the cell-cycle staining kit according to the manufacturer’s manual. The distribution of cell-cycle phases with different DNA contents was determined by flow cytometry (BD LSRFortessa™ Flow Cytometer) and analyzed using ModFit LT software.

wild-type EGFR = wild-type EGFR (Homo sapiens, UniProt P00533); assay: EGFR kinase assay (ELISA); details: for A450: raw ELISA absorbance
wild-type EGFR, sequence (P00533 25-1210): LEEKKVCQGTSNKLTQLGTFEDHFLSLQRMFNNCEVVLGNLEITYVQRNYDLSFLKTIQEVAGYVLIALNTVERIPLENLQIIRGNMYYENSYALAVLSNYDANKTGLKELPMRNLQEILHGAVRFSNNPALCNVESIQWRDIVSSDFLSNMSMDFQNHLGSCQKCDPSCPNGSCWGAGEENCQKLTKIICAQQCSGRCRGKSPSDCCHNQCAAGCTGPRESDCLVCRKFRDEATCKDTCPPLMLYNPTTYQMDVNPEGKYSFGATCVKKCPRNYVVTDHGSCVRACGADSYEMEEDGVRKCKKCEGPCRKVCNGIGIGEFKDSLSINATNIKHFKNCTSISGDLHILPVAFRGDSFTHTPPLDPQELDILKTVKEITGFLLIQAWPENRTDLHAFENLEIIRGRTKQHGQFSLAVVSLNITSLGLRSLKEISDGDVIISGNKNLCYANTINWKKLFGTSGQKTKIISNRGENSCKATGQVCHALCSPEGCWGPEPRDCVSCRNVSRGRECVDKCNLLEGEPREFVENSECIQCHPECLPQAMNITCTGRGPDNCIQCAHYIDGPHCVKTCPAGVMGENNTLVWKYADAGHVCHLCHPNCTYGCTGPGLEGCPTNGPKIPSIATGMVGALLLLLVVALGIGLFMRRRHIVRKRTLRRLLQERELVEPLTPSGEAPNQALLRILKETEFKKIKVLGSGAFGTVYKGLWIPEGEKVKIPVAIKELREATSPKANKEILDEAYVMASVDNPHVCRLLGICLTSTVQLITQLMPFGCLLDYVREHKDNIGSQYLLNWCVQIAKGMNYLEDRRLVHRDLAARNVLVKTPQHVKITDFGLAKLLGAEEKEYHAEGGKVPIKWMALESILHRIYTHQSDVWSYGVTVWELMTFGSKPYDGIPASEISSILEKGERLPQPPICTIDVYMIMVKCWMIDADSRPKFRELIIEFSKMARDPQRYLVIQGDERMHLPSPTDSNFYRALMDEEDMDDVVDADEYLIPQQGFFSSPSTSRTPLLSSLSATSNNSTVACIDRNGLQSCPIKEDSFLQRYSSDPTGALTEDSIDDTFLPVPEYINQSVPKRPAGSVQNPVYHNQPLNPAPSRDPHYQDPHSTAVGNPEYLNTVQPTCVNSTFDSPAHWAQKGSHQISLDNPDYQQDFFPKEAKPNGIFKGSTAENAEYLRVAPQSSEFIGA
Protocol: The kinase enzyme of EGFR was purchased from Carna Bioscience (Kobe, Japan). A total of 10 ng/ml anti phosphotyrosine (PY713) antibody (abcam, Cambridge Science Park, United Kingdom) was precoated in 96-well ELISA plates. […] Then, a total of 3 μmol/L ATP was added and the reaction was continued for 2 h. […] After incubation, the wells were washed with PBS and then incubated with horseradish peroxidase (HRP)-conjugated streptavidin. The wells were visualized using 3,3′,5,5′-tetramethylbenzidine (TMB), and chromogenic reaction was ended with 2 mol/L H2SO4, the absorbance was read with a multimode plate reader (PerkinElmer, United States) at 450 nm.

[4] = test system: AKT phosphorylation (S473) in H460 cells; assay: Western blot, p-AKT/AKT in H460; details: for p-AKT/AKT: band density ratio; for p-AKT/AKT relative to DMSO: ratio normalised to DMSO
Protocol: (§1) We also performed western blot analysis to evaluate the impact of e4 and e12 on EGFR signaling in PC-9 and H460 cells.
(§2) H460 cells were seeded in six-well plates with serum-free medium overnight, and then treated complete medium containing 0.1% DMSO, various concentrations (0.1, 1 and 10 μM) of either compound e4 or e12 for 2 h, respectively. […] Then the H460 cells were treated with complete medium containing EGF (10 ng/ml) for 5 min. Then the cells were harvested and washed with PBS, centrifuged, resuspended in 100–200 μl of RIPA lysis buffer containing Protease and Phosphatase Inhibitor Cocktail (1X), and then centrifuged for 5 min at 12,000 rpm at 4°C. The supernatant was used for protein analysis. […] Then the membrane was washed 5 min (X3) and incubated at 1:3,000 dilution of anti-rabbit secondary antibodies or 1:1,000 dilution of anti-mouse secondary antibodies for 1 h at RT. After washing with TBST 5 min (X3), protein bands were developed by chemiluminescence. The protein levels were quantified by the gray values of the bands in the resulting images by ImageJ, and the control group was used as the standard. […] The PC-9 cells were harvested and analyzed as above.

[5] = test system: AKT phosphorylation (S473) in PC-9 cells; assay: Western blot, p-AKT/AKT in PC-9; details: for p-AKT/AKT: band density ratio; for p-AKT/AKT relative to DMSO: ratio normalised to DMSO = 1
Protocol: as §1, §2

[6] = test system: EGFR phosphorylation (Tyr1068) in PC-9 cells; assay: Western blot, p-EGFR/EGFR in PC-9; details: for p-EGFR/EGFR: band density ratio; for p-EGFR/EGFR relative to DMSO: ratio normalised to DMSO = 1
Protocol: as §1, §2

PC-9 cells [7] = assay: CCK-8 antiproliferation assay, PC-9; details: for Inhibitory efficacy: single repeats (Repeat 1-3), given as fraction

COCCOc1cc2ncnc(Nc3cccc(-c4cn(Cc5cc(Br)cc(Br)c5)nn4)c3)c2cc1OCCOC [e4, [6,7-Bis-(2-methoxy-ethoxy)-quinazolin-4-yl]-{3-[1-(3,5-dibromo-benzyl)-1H-[1,2,3]triazol-4-yl]-phenyl}-amine]
cell apoptosis (flow cytometry) (PC-9 cells [1]; PC-9, 4, 8 and 12 μM, 48 h): significant cell apoptosis
Apoptosis, Average (PC-9 cells [1]; 4uM): 10.24
Lymphocytes/Q2: FITC-A+ , PI-A+ Freq. of Parent (PC-9 cells [1]; 4uM): 4.32% and 13.0% and 11.9%
Lymphocytes/Q3: FITC-A+ , PI-A- Freq. of Parent (PC-9 cells [1]; 4uM): 0.25% and 0.69% and 0.56%
Apoptosis, Average (PC-9 cells [1]; 8uM): 14.45
Apoptosis (sum of Q2 and Q3) (PC-9 cells [1]; 8uM): 10.39 and 18.02 and 14.93
Lymphocytes/Q2: FITC-A+ , PI-A+ Freq. of Parent (PC-9 cells [1]; 8uM): 9.22% and 16.0% and 13.2%
Lymphocytes/Q3: FITC-A+ , PI-A- Freq. of Parent (PC-9 cells [1]; 8uM): 1.17% and 2.02% and 1.73%
Apoptosis, Average (PC-9 cells [1]; 12uM): 35.74
Apoptosis (sum of Q2 and Q3) (PC-9 cells [1]; 12uM): 33.11 and 39.69 and 34.42
Lymphocytes/Q2: FITC-A+ , PI-A+ Freq. of Parent (PC-9 cells [1]; 12uM): 28.20% and 34.7% and 29.1%
Lymphocytes/Q3: FITC-A+ , PI-A- Freq. of Parent (PC-9 cells [1]; 12uM): 4.91% and 4.99% and 5.32%
apoptotic morphology, Hoechst 33342 staining (PC-9 cells [2]): exhibited features typical of apoptosis
G0/G1 (PC-9 cells [3]; PC-9, 4uM): 48.12 and 48.79 and 52.62
G2/M (PC-9 cells [3]; PC-9, 4uM): 15.27 and 15.42 and 15.56
S (PC-9 cells [3]; PC-9, 4uM): 36.61 and 35.79 and 31.83
G0/G1 (PC-9 cells [3]; PC-9, 8uM): 53.18 and 53.63 and 55.05
G2/M (PC-9 cells [3]; PC-9, 8uM): 16.92 and 17.15 and 16.88
S (PC-9 cells [3]; PC-9, 8uM): 29.9 and 29.22 and 28.08
G0/G1 (PC-9 cells [3]; PC-9, 12uM): 60.53 and 62.02 and 63.46
G2/M (PC-9 cells [3]; PC-9, 12uM): 23.33 and 22.27 and 17.86
S (PC-9 cells [3]; PC-9, 12uM): 16.14 and 15.71 and 18.68
percentage of cells in the G0/G1 phase (PC-9 cells [3]; PC-9, various concentrations, 24 h): induced higher percentages
inhibition at 100 fM (wild-type EGFR; concentration 0.0001 nM (reference for normalisation), one value per replicate column): 0%
Inhibition (wild-type EGFR; concentration 0.03 nM, one value per replicate column, 3e-05 µM): 0.3205 and 0.9868
inhibition at 0.0003 µM (wild-type EGFR; concentration 0.3 nM, one value per replicate column): 8.65%
Inhibition (wild-type EGFR; concentration 0.3 nM, one value per replicate column, 0.0003 µM): 6.25
inhibition at 0.003 µM (wild-type EGFR; concentration 3 nM, one value per replicate column): 8.97%
Inhibition (wild-type EGFR; concentration 3 nM, one value per replicate column, 0.003 µM): 8.553
inhibition at 0.03 µM (wild-type EGFR; concentration 30 nM, one value per replicate column): 9.62%
Inhibition (wild-type EGFR; concentration 30 nM, one value per replicate column, 0.03 µM): 10.8553
inhibition at 0.3 µM (wild-type EGFR; concentration 300 nM, one value per replicate column): 10.3%
Inhibition (wild-type EGFR; concentration 300 nM, one value per replicate column, 0.3 µM): 11.1842
inhibition at 3 µM (wild-type EGFR; concentration 3000 nM, one value per replicate column): 13.8%
Inhibition (wild-type EGFR; concentration 3000 nM, one value per replicate column, 3 µM): 18.75
inhibition at 30 µM (wild-type EGFR; concentration 30000 nM, one value per replicate column): 70.2%
Inhibition (wild-type EGFR; concentration 30000 nM, one value per replicate column, 30 µM): 70.7237
A450 (wild-type EGFR; concentration 0.0001 nM): 0.554 and 0.551
A450 (wild-type EGFR; concentration 0.03 nM): 0.553 and 0.548
A450 (wild-type EGFR; concentration 0.3 nM): 0.527 and 0.532
A450 (wild-type EGFR; concentration 3 nM): 0.526 and 0.525
A450 (wild-type EGFR; concentration 30 nM): 0.524 and 0.518
A450 (wild-type EGFR; concentration 300 nM): 0.522 and 0.517
A450 (wild-type EGFR; concentration 3000 nM): 0.511 and 0.494
A450 (wild-type EGFR; concentration 30000 nM): 0.335 and 0.336
IC50 (wild-type EGFR; read-out: IC50 (μM) EGFR, ELISA, 3 μmol/L ATP): 13 µM
p-AKT/AKT ([4]; H460, 0.1 uM): 1.245
p-AKT/AKT relative to DMSO ([4]; H460, 0.1 uM): 1.252
p-AKT/AKT ([4]; H460, 1 uM): 0.733
p-AKT/AKT relative to DMSO ([4]; H460, 1 uM): 0.7369
p-AKT/AKT ([4]; H460, 10 uM): 1.039
p-AKT/AKT relative to DMSO ([4]; H460, 10 uM): 1.044
phosphorylation of AKT (western blot) ([4]; H460, especially at 10 μM): suppressed
p-AKT/AKT ([5]; PC-9, 0.1 uM): 0.8512
p-AKT/AKT relative to DMSO ([5]; PC-9, 0.1 uM): 0.8172
p-AKT/AKT ([5]; PC-9, 1 uM): 0.7155
p-AKT/AKT relative to DMSO ([5]; PC-9, 1 uM): 0.6869
p-AKT/AKT ([5]; PC-9, 10 uM): 0.5338
p-AKT/AKT relative to DMSO ([5]; PC-9, 10 uM): 0.5125
phosphorylation of AKT (western blot) ([5]; PC-9, especially at 10 μM): suppressed
p-EGFR/EGFR ([6]; PC-9, 0.1 uM): 0.3318
p-EGFR/EGFR relative to DMSO ([6]; PC-9, 0.1 uM): 0.2965
p-EGFR/EGFR ([6]; PC-9, 1 uM): 0.2248
p-EGFR/EGFR relative to DMSO ([6]; PC-9, 1 uM): 0.2009
p-EGFR/EGFR ([6]; PC-9, 10 uM): 0.5115
p-EGFR/EGFR relative to DMSO ([6]; PC-9, 10 uM): 0.4571
phosphorylation of EGFR (western blot) ([6]; PC-9, especially at 10 μM): suppressed
IC50 (PC-9 cells [7]; Homo sapiens, PC-9, 48 h, read-out: IC50 (μM) PC-9): 4.38 ± 0.12 µM
inhibition at 1 µM (PC-9 cells [7]; Homo sapiens, PC-9, read-out: Inhibitory efficacy, PC-9, 1uM, single repeats (Repeat 1-3), given as fraction): 4.24%
inhibition at 2 µM (PC-9 cells [7]; Homo sapiens, PC-9, read-out: Inhibitory efficacy, PC-9, 2uM, single repeats (Repeat 1-3), given as fraction): 12.8%
inhibition at 4 µM (PC-9 cells [7]; Homo sapiens, PC-9, read-out: Inhibitory efficacy, PC-9, 4uM, single repeats (Repeat 1-3), given as fraction): 40%
inhibition at 8 µM (PC-9 cells [7]; Homo sapiens, PC-9, read-out: Inhibitory efficacy, PC-9, 8uM, single repeats (Repeat 1-3), given as fraction): 88.1%
inhibition at 16 µM (PC-9 cells [7]; Homo sapiens, PC-9, read-out: Inhibitory efficacy, PC-9, 16uM, single repeats (Repeat 1-3), given as fraction): 85.7%
Inhibitory efficacy (PC-9 cells [7]; PC-9, 1uM, 1 µM): 0.05688 and 0.04243
Inhibitory efficacy (PC-9 cells [7]; PC-9, 2uM, 2 µM): 0.1851 and 0.2067
Inhibitory efficacy (PC-9 cells [7]; PC-9, 4uM, 4 µM): 0.4288 and 0.3873
Inhibitory efficacy (PC-9 cells [7]; PC-9, 8uM, 8 µM): 0.8667 and 0.8549
Inhibitory efficacy (PC-9 cells [7]; PC-9, 16uM, 16 µM): 0.8604 and 0.8477
